Test results published in patent US8889676B2, “3-ureidoisoquinolin-8-yl derivatives” (Actelion Pharmaceuticals Ltd., priority 2011, dated 2014).
Values after ≈ are worked out from the molar mass of the structure shown.

Test system: S. pneumoniae ATCC 49619
Assay: Minimal inhibitory concentration (MIC) by broth microdilution (CLSI M7-A7)
Assay type: cell-based, Streptococcus pneumoniae
Settings: Streptococcus pneumoniae, ATCC49619; cation-adjusted Mueller Hinton Broth supplemented with 3% (v/v) lysed horse blood; microdilution method
Protocol: Minimal inhibitory concentrations (MICs; mg/l) were determined in cation-adjusted MuellerHinton Broth (supplemented with 3% (v/v) lysed horse blood for testing Streptococcus pneumoniae) by a microdilution method following the description given in “Methods for Dilution Antimicrobial Susceptibility Tests for Bacteria that Grow Aerobically”, Approved standard, 7th ed., a Clinical and Laboratory Standards Institute (CLSI) Document M7-A7, Wayne, Pa., USA, 2006.

Structure (SMILES) | MIC [µg/mL]
CCNC(=O)Nc1cc2c(-c3ccncc3)ccc(CNC(=O)OCC(O)CO)c2cn1.Cl (racemic) [Example 103, (±)-[3-(3-ethyl-ureido)-5-pyridin-4-yl-isoquinolin-8-ylmethyl]-carbamic acid 2,3-dihydroxy-propyl ester hydrochloride] | 4
C#CC(C)OC(=O)NCc1ccc(-c2ccncc2)c2cc(NC(=O)NCC)ncc12 (racemic) [Example 108, (±)-[3-(3-ethyl-ureido)-5-pyridin-4-yl-isoquinolin-8-ylmethyl]-carbamic acid 1-methyl-prop-2-ynyl ester] | 0.25 (≈ 0.599 µM)
CCNC(=O)Nc1cc2cccc(CNC(=O)c3ccncc3)c2cn1 [Example 2, N-[3-(3-ethyl-ureido)-isoquinolin-8-ylmethyl]-isonicotinamide] | 2 (≈ 5.72 µM)
CCNC(=O)Nc1cc2cccc(CNC(=O)c3ccccc3)c2cn1 [Example 4, N-[3-(3-ethyl-ureido)-isoquinolin-8-ylmethyl]-benzamide] | 2 (≈ 5.74 µM)
CCNC(=O)Nc1cc2cccc(CNC(=O)c3cccnc3)c2cn1 [Example 10, N-[3-(3-ethyl-ureido)-isoquinolin-8-ylmethyl]-nicotinamide] | 4 (≈ 11.4 µM)
CCNC(=O)Nc1cc2cccc(CNC(=O)c3ccccn3)c2cn1 [Example 11, pyridine-2-carboxylic acid [3-(3-ethyl-ureido)-isoquinolin-8-ylmethyl]-amide] | 2 (≈ 5.72 µM)
CCNC(=O)Nc1cc2cccc(CNC(=O)Cc3ccccc3)c2cn1 [Example 12, N-[3-(3-ethyl-ureido)-isoquinolin-8-ylmethyl]-2-phenyl-acetamide] | 1 (≈ 2.76 µM)
CCNC(=O)Nc1cc2cccc(CNC(=O)c3ncc[nH]3)c2cn1 [Example 16, 1H-imidazole-2-carboxylic acid [3-(3-ethyl-ureido)-isoquinolin-8-ylmethyl]-amide] | 4 (≈ 11.8 µM)
CCNC(=O)Nc1cc2cccc(CNC(=O)c3cn[nH]n3)c2cn1 [Example 20, 2H-[1,2,3]triazole-4-carboxylic acid [3-(3-ethyl-ureido)-isoquinolin-8-ylmethyl]-amide] | 1 (≈ 2.95 µM)
CCNC(=O)Nc1cc2cccc(CNC(=O)c3cncn3C)c2cn1 [Example 22, 3-methyl-3H-imidazole-4-carboxylic acid [3-(3-ethyl-ureido)-isoquinolin-8-ylmethyl]-amide] | 4 (≈ 11.4 µM)
CCNC(=O)Nc1cc2c(-c3ccncc3)ccc(CNC(=O)c3cccnc3)c2cn1 [Example 23, N-[3-(3-ethyl-ureido)-5-pyridin-4-yl-isoquinolin-8-ylmethyl]-nicotinamide] | 1 (≈ 2.34 µM)
CCNC(=O)Nc1cc2cccc(CNC(=O)OCc3ccncc3)c2cn1.Cl [Example 25, [3-(3-ethyl-ureido)-isoquinolin-8-ylmethyl]-carbamic acid pyridin-4-ylmethyl ester hydrochloride] | 2
CCNC(=O)Nc1cc2cccc(CNC(=O)OCc3cncnc3)c2cn1.Cl [Example 26, [3-(3-ethyl-ureido)-isoquinolin-8-ylmethyl]-carbamic acid pyrimidin-5-ylmethyl ester hydrochloride] | 4
CCNC(=O)Nc1cc2cccc(CNC(=O)OCc3ccncn3)c2cn1.Cl [Example 29, [3-(3-ethyl-ureido)-isoquinolin-8-ylmethyl]-carbamic acid pyrimidin-4-ylmethyl ester hydrochloride] | 4
CCNC(=O)Nc1cc2cccc(CNC(=O)OCCC#N)c2cn1.Cl [Example 32, [3-(3-ethyl-ureido)-isoquinolin-8-ylmethyl]-carbamic acid 2-cyano-ethyl ester hydrochloride] | 4
CCNC(=O)Nc1cc2cccc(CNC(=O)OCc3cccnc3)c2cn1.Cl [Example 33, [3-(3-ethyl-ureido)-isoquinolin-8-ylmethyl]-carbamic acid pyridin-3-ylmethyl ester hydrochloride] | 4
CCNC(=O)Nc1cc2cccc(CNC(=O)OCc3ccccn3)c2cn1.Cl [Example 34, [3-(3-ethyl-ureido)-isoquinolin-8-ylmethyl]-carbamic acid pyridin-2-ylmethyl ester hydrochloride] | 4
CCNC(=O)Nc1cc2cccc(CNC(=O)OCc3ccn(C)n3)c2cn1.Cl [Example 35, [3-(3-ethyl-ureido)-isoquinolin-8-ylmethyl]-carbamic acid (1-methyl-1H-pyrazol-3-yl)methyl ester hydrochloride] | 4
CCNC(=O)Nc1cc2cccc(CNC(=O)OCc3ccccc3)c2cn1.Cl [Example 36, [3-(3-ethyl-ureido)-isoquinolin-8-ylmethyl]-carbamic acid benzyl ester hydrochloride] | 4
CCNC(=O)Nc1cc2cccc(CNC(=O)OCc3cncn3C)c2cn1.Cl [Example 38, [3-(3-ethyl-ureido)-isoquinolin-8-ylmethyl]-carbamic acid 3-methyl-3H-imidazol-4-ylmethyl ester hydrochloride] | 8
CCNC(=O)Nc1cc2cccc(CNC(=O)OCc3cn[nH]c3)c2cn1.Cl [Example 39, [3-(3-ethyl-ureido)-isoquinolin-8-ylmethyl]-carbamic acid 1H-pyrazol-4-ylmethyl ester hydrochloride] | 2
C#CCOC(=O)NCc1ccc(-c2ccncc2)c2cc(NC(=O)NCC)ncc12 [Example 41, [3-(3-ethyl-ureido)-5-pyridin-4-yl-isoquinolin-8-ylmethyl]-carbamic acid prop-2-ynyl ester] | 0.25 (≈ 0.62 µM)

Now from value to compound:

MIC [µg/mL] | Structure (SMILES)
2 (≈ 6.44 µM) | C#CCC(=O)NCc1cccc2cc(NC(=O)NCC)ncc12 [Example 1, but-3-ynoic acid [3-(3-ethyl-ureido)-isoquinolin-8-ylmethyl]-amide]
4 (≈ 14 µM) | CCNC(=O)Nc1cc2cccc(CNC(C)=O)c2cn1 [Example 3, N-[3-(3-ethyl-ureido)-isoquinolin-8-ylmethyl]-acetamide]
4 (≈ 12.8 µM) | CCNC(=O)Nc1cc2cccc(CNC(=O)CC#N)c2cn1 [Example 5, 2-cyano-N-[3-(3-ethyl-ureido)-isoquinolin-8-ylmethyl]-acetamide]
4 (≈ 11.3 µM) | CCNC(=O)Nc1cc2cccc(CNC(=O)C3CCCCC3)c2cn1 [Example 6, cyclohexanecarboxylic acid [3-(3-ethyl-ureido)-isoquinolin-8-ylmethyl]-amide]
2 (≈ 6.13 µM) | CCNC(=O)Nc1cc2cccc(CNC(=O)CC3CC3)c2cn1 [Example 7, 2-cyclopropyl-N-[3-(3-ethyl-ureido)-isoquinolin-8-ylmethyl]-acetamide]
8 (≈ 23.3 µM) | CCNC(=O)Nc1cc2cccc(CNC(=O)CNC(C)=O)c2cn1 [Example 8, 2-acetylamino-N-[3-(3-ethyl-ureido)-isoquinolin-8-ylmethyl]-acetamide]
2 (≈ 6.75 µM) | C#CC(=O)NCc1cccc2cc(NC(=O)NCC)ncc12 [Example 9, propynoic acid [3-(3-ethyl-ureido)-isoquinolin-8-ylmethyl]-amide]
2 (≈ 6.4 µM) | CCNC(=O)Nc1cc2cccc(CNC(=O)C3CC3)c2cn1 [Example 13, cyclopropanecarboxylic acid [3-(3-ethyl-ureido)-isoquinolin-8-ylmethyl]-amide]
4 (≈ 12.2 µM) | CCNC(=O)Nc1cc2cccc(CNC(=O)C(C)(C)C)c2cn1 [Example 14, N-[3-(3-ethyl-ureido)-isoquinolin-8-ylmethyl]-2,2-dimethyl-propionamide]
4 (≈ 12.6 µM) | CCNC(=O)Nc1cc2cccc(CNC(=O)COC)c2cn1 [Example 15, N-[3-(3-ethyl-ureido)-isoquinolin-8-ylmethyl]-2-methoxy-acetamide]
8 (≈ 24.7 µM) | C#CCCC(=O)NCc1cccc2cc(NC(=O)NCC)ncc12 [Example 17, pent-4-ynoic acid [3-(3-ethyl-ureido)-isoquinolin-8-ylmethyl]-amide]
4 (≈ 12.7 µM) | CCNC(=O)Nc1cc2cccc(CNC(=O)C(C)C)c2cn1 [Example 18, N-[3-(3-ethyl-ureido)-isoquinolin-8-ylmethyl]-isobutyramide]
8 (≈ 24.3 µM) | CCNC(=O)Nc1cc2cccc(CNC(=O)CN(C)C)c2cn1 [Example 19, 2-dimethylamino-N-[3-(3-ethyl-ureido)-isoquinolin-8-ylmethyl]-acetamide]
8 (≈ 23.3 µM) | CCNC(=O)Nc1cc2cccc(CNC(=O)CCC(N)=O)c2cn1 [Example 21, N-[3-(3-ethyl-ureido)-isoquinolin-8-ylmethyl]-succinamide]
4 | CCNC(=O)Nc1cc2cccc(CNC(=O)OCC)c2cn1.Cl [Example 24, [3-(3-ethyl-ureido)-isoquinolin-8-ylmethyl]-carbamic acid ethyl ester hydrochloride]
4 | CCNC(=O)Nc1cc2cccc(CNC(=O)OCCF)c2cn1.Cl [Example 27, [3-(3-ethyl-ureido)-isoquinolin-8-ylmethyl]-carbamic acid 2-fluoro-ethyl ester hydrochloride]
4 | CCNC(=O)Nc1cc2cccc(CNC(=O)OCC3CC3)c2cn1.Cl [Example 28, [3-(3-ethyl-ureido)-isoquinolin-8-ylmethyl]-carbamic acid cyclopropylmethyl ester hydrochloride]
4 | CCNC(=O)Nc1cc2cccc(CNC(=O)OC(C)C)c2cn1.Cl [Example 30, [3-(3-ethyl-ureido)-isoquinolin-8-ylmethyl]-carbamic acid isopropyl ester hydrochloride]
2 | C#CCOC(=O)NCc1cccc2cc(NC(=O)NCC)ncc12.Cl [Example 31, [3-(3-ethyl-ureido)-isoquinolin-8-ylmethyl]-carbamic acid prop-2-ynyl ester hydrochloride]
4 | CCNC(=O)Nc1cc2cccc(CNC(=O)OCCOC)c2cn1.Cl [Example 37, [3-(3-ethyl-ureido)-isoquinolin-8-ylmethyl]-carbamic acid 2-methoxy-ethyl ester hydrochloride]
4 | C#CCCOC(=O)NCc1cccc2cc(NC(=O)NCC)ncc12.Cl [Example 40, [3-(3-ethyl-ureido)-isoquinolin-8-ylmethyl]-carbamic acid but-3-ynyl ester hydrochloride]
